Patent US10975142B2, “Endotrophin neutralization and use thereof” (THE BOARD OF REGENTS OF THE UNIVERSITY OF TEXAS SYSTEM, priority 2013, dated 2021)

Assays:
[1] = tested on: PyMT/endotrophin mice; test: high dosage cisplatin in PyMT/endotrophin mice; assay type: in vivo, mouse; conditions: cisplatin 2.5 mg/kg, ip. twice a week
Description: FIGS. 20A-20C. Endotrophin overexpression confers cisplatin resistance in PyMT mice. FIG. 20A. 10-weeks-aged PyMT and PyMT/endotrophin (PyMT/ETP) mice were given high dosage of cisplatin (2.5 mg/kg, ip., 2 times/week). Tumor growth was determined by caliper measurements. Data represent mean±SD (n=7-10/group). ***p<0.001, PyMT/CIS vs. PyMT/ETP/CIS by 2-way ANOVA. FIGS. 20B-20C. A piece of tumors taken from PyMT (Ctrl-tumor) and PyMT/endotrophin (ETP^+-tumor) mice were implanted into isogenic wild-type hosts. Cisplatin (1 mg/kg, ip., 2 times/week) were injected at 3-weeks post implantation for tumor progression. Tumor volume was determined by caliper measurement. […] Data represent mean±SD (n=7-8/group). *p<0.05 vs. Ctrl-tumors by 2-way ANOVA. Representative images were taken at 70-days post implantation. Scale: 10 mm.

[2] = tested on: 4T1; test: 4T1 xenograft in nude mice, cisplatin with 10B6 or IgG; assay type: in vivo; conditions: 28-days; cisplatin 1 mg/kg every 5 days, 10B6 100 μg/mouse once a week
Description: FIGS. 22A-22E. Neutralizing endotrophin activities with monoclonal antibodies sensitizes tumors to cisplatin treatment. FIG. 22A. Pieces of tumors from PyMT mice were implanted into wild-type hosts. Tumor-bearing mice were given cisplatin (1 mg/kg, ip., every 5 days) or PBS, combined with either TZD (20 mg/kg) or anti-endotrophin monoclonal antibodies (100 μg/mouse, once a week) for tumor progression. Tumor volumes were determined by caliper measurements. Data represent mean±SD (n=5/group). *p<0.05, **p<0.01, ***p<0.001 vs. Cisplatin by 2-way ANOVA. FIGS. 22B-22D. 4T1 (0.5×10^6/mouse) cells were xenografted in nude mice and monitored tumor growth (FIG. 22B) and metastasis (FIG. 22C). […] Tumor volumes were determined by caliper measurements. […] Metastatic burden was determined by measuring metastatic lesion area in lung tissues with H&E stains. Quantified data represent mean±SD (n=5/group). **p=0.0007 and *p=0.0209 vs. CIS/10B6 by unpaired student t-test. mRNA levels for EMT markers such as vimentin, snail, slug, twist1, twist2 and S100S4 were determined by RT-qPCR (FIG. 22D). […]
As a last step, therapeutic potential of a previously described endotrophin neutralizing antibody (clone 10B6) on cisplatin sensitivity was determined. […] Tumor regression was monitored for 2-months post implantation. […]

[3] = tested on: MS-1 cells; test: in vitro angiogenesis assay (tubule formation on Matrigel); assay type: cell-based, mouse; conditions: 10B6 10 μg/well, 3 hours
Description: FIGS. 17A-17B. Endotrophin effects on endothelial cell migration. FIG. 17A. in vivo Matrigel bioassays were performed as described in FIG. 6J. Matrigel plugs were analyzed by H&E and immunostaining for CD31 (endothelial cell marker). Scale bars: 200 μm (H&E), and 50 μm (CD31). FIG. 17B. in vitro Angiogenesis assay. MS-1 cells (5×10^4 cells/well) were plated in triplicate on the matrigel coated 12-well plates. Tubule formation was assessed 3 hours after incubation with conditioned media derived from H293 or H293-endotrophin overexpressing cells in the presence or absence of 10B6 (10 μg/well). Scale bars: 500 μm.
A total 300 μl/well of growth factor reduced matrigel (BD biosciences) was plated into 12 well plates. MS-1 cells (5×10^4) were seeded and images were acquired 3-4 hours after incubation with the conditioned media indicated.

For `N.N.[Cl][Pt][Cl]` [cisplatin, cis-diammine-dichloro-platinum], the “response of PyMT/endotrophin mice to cisplatin treatment” value [1] was “resistant” and the “primary tumor growth of 4T1” value [2] was “barely inhibited”.

B1: 10B6: rat anti-mouse endotrophin monoclonal antibody; light chain variable SEQ ID NO: 2, heavy chain variable SEQ ID NO: 4 (antibody, V domains shown)
VH: QVQLQQSGPELAKPGSSVKISCKASGYTFTSYEMHWIKQRPGQGLEWIGYIYPESGSTGYNEKFKGKATLTVDKSSPTAYMQLSSLTPDNSAVYFCTRGLRVLGYVMDVWGHGTSVTVSS
VL: DVQLTQSPSFLSASVGDRVTINCKASQNINKYLNWYQQKLGEAPKRLIYNTNNLQTGIPSRFSGSASGTDYTLTISSLHPEDFATYFCLQHSSLYTFGAGTKLELK
B1 was tested, and the “vasculature structure (tubule) formation induced by conditioned media from ETP-overexpressing HEK-293T cells” value [3] was “completely blocked” and the “primary tumor growth of 4T1” value [2] was “barely inhibited”.
